Data taken from patent publication US20090068290A1, “BIFEPRUNOX DOSES FOR TREATING SCHIZOPHRENIA” (priority 2006, published 2009).

Key:
[1] = tested on: adult subjects with schizophrenia; test: PANSS negative symptom subscale score, Clinical Study Three; type: in vivo, human; conditions: LOCF; for Change from Baseline in PANSS Negative Symptom Subscale Score, Mean (SD) / Change from Baseline in PANSS Negative Symptom Subscale Score, Median: Olanzapine 15 mg, ITT population
Text: SECONDARY OBJECTIVES To assess the efficacy of bifeprunox in treating schizophrenia using the Positive Symptom sub-scale score of the PANSS, the Negative Symptom sub-scale score of the PANSS, the General Psychopathology sub-scale of the PANSS, Brief Psychiatric Rating Scale (BPRS) total score derived from the PANSS, BPRS psychosis score derived from the PANSS, the Clinical Global Impression Severity of Illness score (CGI-S), the Clinical Global Impression Improvement score (CGI-I), CGI-I responder rate, PANSS responder rate based on the PANSS total score, Calgary Depression Scale for Schizophrenia (CDSS), and Subject Satisfaction rating.
There were four treatment arms in this study, approximately 144 subjects per arm. […] After completing the Single-Blind Placebo Lead-in Period of at least three days, bifeprunox-treated subjects were titrated from 0.25 mg up to 20 mg/day or 30 mg/day according to a standardized titration scheme over a seven- or eight-day period, respectively. When the assigned dose was reached, subjects were maintained at that dose for the remainder of the six week treatment period. […] Subjects were hospitalized (if not already inpatients) after eligibility for study entry was verified, starting from the Screening Visit until at least 10 days after Baseline. Subjects could be hospitalized longer than 10 days if considered medically necessary by the Investigator. Rating scale assessments for efficacy and abnormal movement disorders were done weekly except for Week 5. […] Subject satisfaction with study medication was assessed at Week 6.

[2] = tested on: adult subjects with schizophrenia; test: PANSS responder rates, Clinical Study Three; type: in vivo, human
Method: (§1) There were four treatment arms in this study, approximately 144 subjects per arm. […] After completing the Single-Blind Placebo Lead-in Period of at least three days, bifeprunox-treated subjects were titrated from 0.25 mg up to 20 mg/day or 30 mg/day according to a standardized titration scheme over a seven- or eight-day period, respectively. When the assigned dose was reached, subjects were maintained at that dose for the remainder of the six week treatment period. […] Subjects were hospitalized (if not already inpatients) after eligibility for study entry was verified, starting from the Screening Visit until at least 10 days after Baseline. Subjects could be hospitalized longer than 10 days if considered medically necessary by the Investigator. Rating scale assessments for efficacy and abnormal movement disorders were done weekly except for Week 5. Safety assessments were performed at Screening, during treatment and at the end of the study. Subject satisfaction with study medication was assessed at Week 6. Samples of whole blood were obtained at Weeks 2, 4, and 6 for determination of bifeprunox in plasma.
CLINICAL STUDY THREE. A PANSS responder was defined as a subject whose PANSS total score decreased by 20% or more from Baseline to Endpoint. As exploratory analyses, responder rates were also analyzed using a 30%, 35%, 40%, and 50% definition of responder.

[3] = tested on: adult subjects with schizophrenia; test: CGI Improvement score, Clinical Study One; type: in vivo, human; conditions: 6 mg
Method: There were five treatment groups in this study. […] Study medication was administered once daily. After Baseline measurements were performed, the titration phase was begun. Bifeprunox treated subjects were titrated up to 5 mg, 10 mg or 20 mg according to a standardized titration schedule (Day 1: 0.125 mg, Day 2: 0.25 mg, Day 3: 0.5 mg, Day 4: 1.0 mg, Day 5: 2.0 mg, Day 6: 5.0 mg, Day 7: 10.0 mg, Day 8: 20 mg). When the assigned dose was reached, subjects were maintained at that dose for the remainder of the six-week treatment period.
The change in the Positive and Negative Symptom Scale (PANSS) total score, from baseline to endpoint, was the primary outcome measure. Secondary efficacy measures included: PANSS positive, PANSS negative, PANSS general psychopathology (GPP) score, PANSS-derived Brief Psychiatric Rating Scale (BPRS) score, Clinical Global Impressions-Severity of Illness (CGI-S), CGI-Improvement (CGI-I) scores, and responder rates. Safety and tolerability evaluations included extrapyramidal symptoms (EPS), weight gain, lipid profile, and serum prolactin.

[4] = tested on: adult subjects with schizophrenia; test: Adverse events (TEAE, SAE, special interest, discontinuation, EPS-related TEAE), Clinical Study Three; conditions: Risperidone 6 mg
Method: as §1
EPS were assessed using treatment-emergent adverse events such as akathisia, dyskinesia, parkinsoniam, etc. and/or formal rating scales such as SAS, BAS, and/or AIMS.

Cc1cc2c(s1)Nc1ccccc1N=C2N1CCN(C)CC1 [Olanzapine, olanzapine, reference compound]
Change from Baseline in PANSS Negative Symptom Subscale Score, Mean (SD) ([1]; Week 1): −1.8 (3.1) | Change from Baseline in PANSS Negative Symptom Subscale Score, Median ([1]; Week 1): −1 | Change from Baseline in PANSS Negative Symptom Subscale Score, Mean (SD) ([1]; Week 2): −3.0 (3.8) | Change from Baseline in PANSS Negative Symptom Subscale Score, Median ([1]; Week 2): −3 | Change from Baseline in PANSS Negative Symptom Subscale Score, Mean (SD) ([1]; Week 3): −4.0 (4.8) | Change from Baseline in PANSS Negative Symptom Subscale Score, Median ([1]; Week 3): −3 | Change from Baseline in PANSS Negative Symptom Subscale Score, Mean (SD) ([1]; Week 4): −4.0 (4.9) | Change from Baseline in PANSS Negative Symptom Subscale Score, Median ([1]; Week 4): −4 | Change from Baseline in PANSS Negative Symptom Subscale Score, Mean (SD) ([1]; Week 6/Endpoint): −4.6 (5.2) | Change from Baseline in PANSS Negative Symptom Subscale Score, Median ([1]; Week 6/Endpoint): −4 | mean change (SD) from Baseline to Endpoint in PANSS Negative Symptom subscale score ([1]; olanzapine 15 mg, ITT): −4.6 (5.2) | PANSS 20% definition response rate No, % ([2]; 15 mg, Week 6/Endpoint, LOCF): 46% | PANSS 20% definition response rate Yes, % ([2]; 15 mg, Week 6/Endpoint, LOCF): 54% | 20% PANSS responder rate ([2]; olanzapine 15 mg, Endpoint LOCF): 54%

Cc1nc2n(c(=O)c1CCN1CCC(c3noc4cc(F)ccc34)CC1)CCCC2 [Risperidone, risperidone, reference compound]
Actual Value of CGI Improvement Score, Mean (S.D.) ([3]; Endpoint LOCF): 3.02 (1.21) | Actual Value of CGI Improvement Score, Median ([3]; Endpoint LOCF): 3.0 | Actual Value of CGI Improvement Score, Mean (S.D.) ([3]; Week 1, LOCF): 3.43 (0.97) | Actual Value of CGI Improvement Score, Median ([3]; Week 1, LOCF): 3.0 | Actual Value of CGI Improvement Score, Median ([3]; Week 2, LOCF): 3.0 | Actual Value of CGI Improvement Score, Mean (S.D.) ([3]; Week 3, LOCF): 2.97 (1.05) | Actual Value of CGI Improvement Score, Median ([3]; Week 3, LOCF): 3.0 | Actual Value of CGI Improvement Score, Mean (S.D.) ([3]; Week 4, LOCF): 3.05 (1.11) | Actual Value of CGI Improvement Score, Median ([3]; Week 4, LOCF): 3.0 | AKATHISIA, % [4]: 3% | BALANCE DISORDER, % [4]: 1 (<1%) | DIZZINESS, % [4]: 5% | DYSARTHRIA, % [4]: 1 (<1%) | DYSKINESIA, % [4]: 1 (<1%) | EXTRAPYRAMIDAL DISORDER, % [4]: 1% | HEADACHE, % [4]: 12% | HYPOKINESIA, % [4]: 1 (<1%) | Hypoaesthesia, % [4]: 1 (<1%)) | MUSCULOSKELETAL STIFFNESS, % [4]: 1 (<1%) | NECK PAIN, % [4]: 1% | NERVOUS SYSTEM DISORDERS, % [4]: 37% | PAIN IN EXTREMITY, % [4]: 2% | PARAESTHESIA, % [4]: 1 (<1%) | RESTLESS LEGS SYNDROME, % [4]: 1 (<1%) | SEDATION, % [4]: 8% | SOMNOLENCE, % [4]: 9% | SPEECH DISORDER, % [4]: 1 (<1%) | TREMOR, % [4]: 3%
